Reference: ChEMBL document CHEMBL1136061, “Novel potent antagonists of human neuropeptide Y Y5 receptors. Part 2: substituted benzo[a]cycloheptene derivatives” (Bioorg Med Chem Lett, 2002)

Legend:
[1] = target: T1, Neuropeptide Y receptor type 5 (Homo sapiens, UniProt Q15761); experiment: (§1) Concentration that inhibited 50% of total specific binding of [125I]PYY ligand to human NPY-Y5 receptor
T1 sequence (Q15761 whole entry): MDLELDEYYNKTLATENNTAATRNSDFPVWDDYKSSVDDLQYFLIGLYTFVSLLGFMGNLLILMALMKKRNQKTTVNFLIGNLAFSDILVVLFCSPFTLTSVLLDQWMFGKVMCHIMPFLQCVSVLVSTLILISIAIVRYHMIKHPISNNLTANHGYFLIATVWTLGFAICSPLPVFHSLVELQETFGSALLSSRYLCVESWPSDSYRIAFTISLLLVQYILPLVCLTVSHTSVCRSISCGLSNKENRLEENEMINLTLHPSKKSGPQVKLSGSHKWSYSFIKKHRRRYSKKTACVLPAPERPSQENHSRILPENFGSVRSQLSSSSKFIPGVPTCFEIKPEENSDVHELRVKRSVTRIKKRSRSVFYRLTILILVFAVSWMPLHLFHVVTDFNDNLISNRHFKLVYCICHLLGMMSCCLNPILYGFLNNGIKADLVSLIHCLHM

[2] = target: T2, Neuropeptide Y receptor type 1 (Homo sapiens, UniProt P25929); experiment: Concentration that inhibited 50% of total specific binding of [125I]PYY ligand to human NPY-Y1 receptor
T2 sequence (P25929 whole entry): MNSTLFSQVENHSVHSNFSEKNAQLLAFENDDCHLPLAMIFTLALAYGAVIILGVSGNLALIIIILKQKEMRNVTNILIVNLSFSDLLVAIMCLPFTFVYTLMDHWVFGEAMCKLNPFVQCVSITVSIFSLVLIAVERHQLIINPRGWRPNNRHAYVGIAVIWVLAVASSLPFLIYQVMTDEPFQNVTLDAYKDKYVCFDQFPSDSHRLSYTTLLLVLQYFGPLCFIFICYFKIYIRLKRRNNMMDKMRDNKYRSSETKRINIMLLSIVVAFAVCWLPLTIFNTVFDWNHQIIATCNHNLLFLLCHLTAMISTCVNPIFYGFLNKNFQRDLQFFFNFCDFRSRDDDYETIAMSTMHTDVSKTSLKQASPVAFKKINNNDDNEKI

[3] = target: T3, Neuropeptide Y receptor type 5 (Homo sapiens) (UniProt Q15761); experiment: as §1
T3 sequence (whole entry): T1 sequence (Q15761 whole entry)

Structure (SMILES)	IC50 [1]	IC50 [2]	inhibition [3]
Cc1ccc2c(c1)CC(NCC1CN(CCNS(=O)(=O)c3cccc4ccccc34)C1)CCC2 (stereo not drawn)	190 nM	–	–
COc1ccc2c(c1)CC(CNCC1CN(CCNS(=O)(=O)c3cccc4ccccc34)C1)CCC2 (stereo not drawn)	86 nM	22000 nM	–
O=S(=O)(NC[C@H]1CC[C@@H](CNCC2CCc3ccccc3C2)CC1)c1cccc2ccccc12 (stereo partly drawn)	38 nM	1300 nM	–
COc1ccc2c(c1)CC(CNC1CCN(CCNS(=O)(=O)c3cccc4ccccc34)CC1)CCC2 (stereo not drawn)	39 nM	29000 nM	–
COc1ccc2c(c1)CC(CNCC1CCN(CCNS(=O)(=O)c3cccc4ccccc34)CC1)CCC2 (stereo not drawn)	16 nM	9600 nM	–
COc1ccc2c(c1OC)CC(NCC1CN(CCNS(=O)(=O)c3cccc4ccccc34)C1)CCC2 (stereo not drawn)	140 nM	–	–
CCOC(=O)COc1ccc2c(c1)CC(NCC1CCN(CCNS(=O)(=O)c3cccc4ccccc34)CC1)CCC2 (stereo not drawn)	680 nM	–	–
COc1ccc2c(c1)CC(NC1CCN(CCNS(=O)(=O)c3cccc4ccccc34)CC1)CCC2 (stereo not drawn)	66 nM	35000 nM	–
O=S(=O)(NCCN1CC(CNC2CCCc3ccc(Cl)cc3C2)C1)c1cccc2ccccc12 (stereo not drawn)	310 nM	–	–

Now from value to molecule:

IC50 [1]	IC50 [2]	inhibition [3]	Structure (SMILES)
52 nM	–	–	Nc1ccc2c(c1)CC(NCC1CCN(CCNS(=O)(=O)c3cccc4ccccc34)CC1)CCC2 (stereo not drawn)
210 nM	–	–	O=S(=O)(NCCN1CCC(CNC2CCCc3ccccc3C2)CC1)c1cccc2ccccc12 (stereo not drawn)
79 nM	15000 nM	–	O=[N+]([O-])c1ccc2c(c1)CC(NCC1CCN(CCNS(=O)(=O)c3cccc4ccccc34)CC1)CCC2 (stereo not drawn)
85 nM	8500 nM	–	O=S(=O)(NCCN1CCC(CNC2CCCc3ccc(Cl)cc3C2)CC1)c1cccc2ccccc12 (stereo not drawn)
45 nM	14000 nM	–	COc1ccc2c(c1)CC(NCC1CCN(CCNS(=O)(=O)c3cccc4ccccc34)CC1)CCC2 (stereo not drawn)
72 nM	18000 nM	–	Cc1ccc2c(c1)CC(NCC1CCN(CCNS(=O)(=O)c3cccc4ccccc34)CC1)CCC2 (stereo not drawn)
540 nM	2800 nM	–	COc1ccc2c(c1)CC(CNCCN1CCC(CNS(=O)(=O)c3cccc4ccccc34)CC1)CCC2 (stereo not drawn)
68 nM	17000 nM	–	COc1cc2c(cc1OC)CC(NCC1CCN(CCNS(=O)(=O)c3cccc4ccccc34)CC1)CCC2 (stereo not drawn)
–	–	25.7%	O=C(O)COc1ccc2c(c1)CC(NCC1CCN(CCNS(=O)(=O)c3cccc4ccccc34)CC1)CCC2 (stereo not drawn)
1000 nM	–	–	COc1ccc2c(c1)CCCC(NCCN1CCC(CNS(=O)(=O)c3cccc4ccccc34)CC1)C2 (stereo not drawn)
740 nM	19000 nM	–	COc1ccc2c(c1)CC(NCCN1CCC(CNS(=O)(=O)c3cccc4ccccc34)CC1)CCC2 (stereo not drawn)
> 1000 nM	–	–	COc1cccc2c1CCCC(NCCN1CCC(CNS(=O)(=O)c3cccc4ccccc34)CC1)C2 (stereo not drawn)
